Like-named read-outs stand apart in the source and are kept apart here.
Legend:
TNFα = assay: cells; assay type: cell-based, human; conditions: LPS-stimulated human monocytes, read-out: EC50 TNF
IRAK4 enzyme = IRAK4 enzyme (Homo sapiens (Human), UniProt Q9NWZ3); assay: biochemical; assay type: biochemical; conditions: IRAK4 enzyme, 500 μM ATP
[1] = Homo sapiens, Monocyte, TNFα content
[2] = Homo sapiens, Monocyte, TNFα by TR-FRET

Sequence of IRAK4 enzyme (Q9NWZ3 whole entry): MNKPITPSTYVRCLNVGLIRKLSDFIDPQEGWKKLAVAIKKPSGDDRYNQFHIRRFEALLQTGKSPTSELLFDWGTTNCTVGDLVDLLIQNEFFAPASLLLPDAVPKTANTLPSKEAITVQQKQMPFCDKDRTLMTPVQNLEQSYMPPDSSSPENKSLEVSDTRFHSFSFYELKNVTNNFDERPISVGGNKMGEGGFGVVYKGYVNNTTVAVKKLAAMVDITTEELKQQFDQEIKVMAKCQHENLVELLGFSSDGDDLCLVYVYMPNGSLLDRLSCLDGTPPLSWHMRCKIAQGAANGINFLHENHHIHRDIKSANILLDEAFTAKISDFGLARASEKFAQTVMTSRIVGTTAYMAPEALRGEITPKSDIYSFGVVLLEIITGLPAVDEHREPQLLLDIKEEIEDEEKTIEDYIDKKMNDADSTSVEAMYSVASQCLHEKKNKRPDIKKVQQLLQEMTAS

SMILES | EC50 (TNFα; [1]) | IC50 (IRAK4 enzyme; TR-FRET) | EC50 (TNFα; [2]) | IC50 (IRAK4 enzyme; TR-FRET (HTRF)) | EC50 (TNFα; TNFα content)
CC(C)(O)[C@H](F)CNC(=O)c1cnc(-c2ccc3cc(C#N)cnn23)cc1N[C@@H]1C[C@@H]2CN(S(C)(=O)=O)C[C@@H]2C1 [Example 247, 6-(3-cyanopyrrolo[1,2-b]pyridazin-7-yl)-N-((R)-2-fluoro-3-hydroxy-3-methylbutyl)-4-(((3aR,5r,6aS)-2-(methylsulfonyl)octahydro-cyclopenta[c]pyrrol-5-yl)amino)nicotinamide] | 262 nM | 6 nM | – | – | –
C[C@H](NC(=O)c1cnc(-c2ccc3cc(C#N)cnn23)cc1NC12CCC(O)(CC1)CC2)C(=O)N1CC(F)(F)C1 [Example 942, (S)-6-(3-cyanopyrrolo[1,2-b]pyridazin-7-yl)-N-(1-(3,3-difluoroazetidin-1-yl)-1-oxopropan-2-yl)-4-((4-hydroxybicyclo[2.2.2]octan-1-yl)amino) nicotinamide] | – | 8 nM | 587 nM | – | –
CC(C)(O)[C@H](F)CNC(=O)c1cnc(-c2ccc3cc(C#N)cnn23)cc1Nc1ccc(C(F)F)nc1 [Example 227, (R)-6-(3-cyanopyrrolo[1,2-b]pyridazin-7-yl)-4-((6-(difluoromethyl)pyridin-3-yl)amino)-N-(2-fluoro-3-hydroxy-3-methylbutyl)nicotinamide] | 31 nM | < 1 nM | – | – | –
COC(=O)NC[C@H]1CN(c2ccc(Nc3cc(-c4ccc5cc(C#N)cnn45)ncc3C(=O)NC[C@@H](F)C(C)(C)O)cn2)CCO1 [Example 887, methyl (((S)-4-(5-((2-(3-cyanopyrrolo[1,2-b]pyridazin-7-yl)-5-(((R)-2-fluoro-3-hydroxy-3-methylbutyl)carbamoyl)pyridin-4-yl)amino)pyridin-2-yl)morpholin-2-yl)methyl)carbamate] | – | 1 nM | 88 nM | – | –
CC(C)(O)[C@H](F)CNC(=O)c1cnc(-c2ccc3cc(C#N)cnn23)cc1Nc1cnn(CC(F)F)c1 [Example 89, (R)-6-(3-cyanopyrrolo[1,2-b]pyridazin-7-yl)-4-((1-(2,2-difluoroethyl)-1H-pyrazol-4-yl)amino)-N-(2-fluoro-3-hydroxy-3-methylbutyl) nicotinamide] | 16 nM | < 1 nM | – | – | –
COCC(=O)NC[C@H]1C[C@H](Nc2cc(-c3ccc4cc(C#N)cnn34)ncc2C(=O)NC[C@@H](F)C(C)(C)O)C1 [Example 823, 6-(3-cyanopyrrolo[1,2-b]pyridazin-7-yl)-N-((R)-2-fluoro-3-hydroxy-3-methylbutyl)-4-(((1r,3R)-3-((2-methoxyacetamido)methyl)cyclobutyl)amino)nicotinamide] | – | < 1 nM | 47 nM | – | –
CC(C)(O)[C@H](F)CNC(=O)c1cnc(-c2ccc3cc(C#N)cnn23)cc1N[C@H]1C[C@H](CNc2nnc(C3CC3)o2)C1 [Example 696, 6-(3-cyanopyrrolo[1,2-b]pyridazin-7-yl)-4-(((1r,3R)-3-(((5-cyclopropyl-1,3,4-oxadiazol-2-yl)amino)methyl)cyclobutyl)amino)-N-((R)-2-fluoro-3-hydroxy-3-methylbutyl)nicotinamide] | 103 nM | – | – | < 1 nM | –
CC(C)(O)[C@H](F)CNC(=O)c1cnc(-c2ccc3cc(C#N)cnn23)cc1Nc1ccc(-n2cccn2)cc1 [Example 769, (R)-4-((4-(1H-pyrazol-1-yl)phenyl)amino)-6-(3-cyanopyrrolo[1,2-b]pyridazin-7-yl)-N-(2-fluoro-3-hydroxy-3-methylbutyl)nicotinamide] | 44 nM | – | – | < 1 nM | –
CC(C)(O)[C@H](F)CNC(=O)c1cnc(-c2ccc3cc(C#N)cnn23)cc1NC1CC2(COC2)C1 [Example 82, (R)-4-(2-oxaspiro[3.3]heptan-6-ylamino)-6-(3-cyanopyrrolo[1,2-b]pyridazin-7-yl)-N-(2-fluoro-3-hydroxy-3-methylbutyl) nicotinamide] | 79 nM | < 1 nM | – | – | –
CC(C)(C)C(=O)NC[C@H]1C[C@H](Nc2cc(-c3ccc4cc(C#N)cnn34)ncc2C(=O)NC[C@@H](F)C(C)(C)O)C1 [Example 824, 6-(3-cyanopyrrolo[1,2-b]pyridazin-7-yl)-N-((R)-2-fluoro-3-hydroxy-3-methylbutyl)-4-(((1r,3R)-3-(pivalamidomethyl)cyclo-butyl)amino)nicotinamide] | – | < 1 nM | 39 nM | – | –
COC[C@@H]1CCCN1c1ccc(Nc2cc(-c3ccc4cc(C#N)cnn34)ncc2C(=O)NC[C@@H](F)C(C)(C)O)cn1 [Example 884, 6-(3-cyanopyrrolo[1,2-b]pyridazin-7-yl)-N-((R)-2-fluoro-3-hydroxy-3-methylbutyl)-4-((6-((S)-2-(methoxymethyl)pyrrolidin-1-yl)pyridin-3-yl)amino)nicotinamide] | – | 2 nM | 29 nM | – | –
CC(C)OC(=O)NC[C@H]1C[C@H](Nc2cc(-c3ccc4cc(C#N)cnn34)ncc2C(=O)NC[C@@H](F)C(C)(C)O)C1 [Example 539, isopropyl (((1R,3r)-3-((2-(3-cyanopyrrolo[1,2-b]pyridazin-7-yl)-5-(((R)-2-fluoro-3-hydroxy-3-methylbutyl)carbamoyl)pyridin-4-yl)amino)cyclo-butyl)methyl)carbamate] | 12 nM | – | – | < 1 nM | –
CCC(=O)c1cccc(Nc2cc(-c3ccc4cc(C#N)cnn34)ncc2C(=O)NC[C@@H](F)C(C)(C)O)c1 [Example 839, (R)-6-(3-cyanopyrrolo[1,2-b]pyridazin-7-yl)-N-(2-fluoro-3-hydroxy-3-methylbutyl)-4-((3-propionylphenyl)amino) nicotinamide] | – | 1 nM | 307 nM | – | –
CC(C)(O)[C@H](F)CNC(=O)c1cnc(-c2ccc3cc(C#N)cnn23)cc1N[C@H]1CC[C@H](c2cnco2)CC1 [Example 630, 6-(3-cyanopyrrolo[1,2-b]pyridazin-7-yl)-N-((R)-2-fluoro-3-hydroxy-3-methylbutyl)-4-(((1r,4R)-4-(oxazol-5-yl)cyclohexyl)amino)nicotinamide] | 9 nM | – | – | < 1 nM | –
CC(C)(O)[C@H](F)CNC(=O)c1cnc(-c2ccc3cc(C#N)cnn23)cc1Nc1cncnc1 [Example 145, (R)-6-(3-cyanopyrrolo[1,2-b]pyridazin-7-yl)-N-(2-fluoro-3-hydroxy-3-methylbutyl)-4-(pyrimidin-5-ylamino)nicotinamide] | 70 nM | < 1 nM | – | – | –
CC(C)Nc1cc(-c2ccc3cc(C#N)cnn23)ncc1C(=O)NS(C)(=O)=O [Example 34, 6-(3-cyanopyrrolo[1,2-b]pyridazin-7-yl)-4-(isopropylamino)-N-(methylsulfonyl) nicotinamide] | > 10000 nM | 9380 nM | – | – | –
COC(C)(C)[C@H](F)CNC(=O)c1cnc(-c2ccc3cc(C#N)cnn23)cc1NC12CCC(O)(CC1)CC2 [Example 354, (R)-6-(3-cyanopyrrolo[1,2-b]pyridazin-7-yl)-N-(2-fluoro-3-methoxy-3-methylbutyl)-4-((4-hydroxybicyclo[2.2.2]octan-1-yl)amino) nicotinamide] | 19 nM | < 1 nM | – | – | –
CN1CCN(C(=O)C23CCC(Nc4cc(-c5ccc6cc(C#N)cnn56)ncc4C(=O)NC[C@@H](F)C(C)(C)O)(CC2)CC3)CC1 [Example 802, (R)-6-(3-cyanopyrrolo[1,2-b]pyridazin-7-yl)-N-(2-fluoro-3-hydroxy-3-methylbutyl)-4-((4-(4-methylpiperazine-1-carbonyl)bicyclo[2.2.2]octan-1-yl)amino) nicotinamide] | – | 2 nM | 157 nM | – | –
CC(C)(O)[C@H](F)CNC(=O)c1cnc(-c2ccc3cc(C#N)cnn23)cc1NCC1CCS(=O)(=O)C1 (stereo partly drawn) [Example 74, 6-(3-cyanopyrrolo[1,2-b]pyridazin-7-yl)-4-(((1,1-dioxidotetrahydrothiophen-3-yl)methyl)amino)-N-((R)-2-fluoro-3-hydroxy-3-methylbutyl) nicotinamide] | 1100 nM | 2 nM | – | – | –
CC(=O)NC12CCC(Nc3cc(-c4ccc5cc(C#N)cnn45)ncc3C(=O)NC[C@@H](F)C(C)(C)O)(CC1)C2 [Example 499, (R)-4-((4-acetamidobicyclo[2.2.1]heptan-1-yl)amino)-6-(3-cyanopyrrolo[1,2-b]pyridazin-7-yl)-N-(2-fluoro-3-hydroxy-3-methylbutyl)nicotinamide] | 20 nM | – | – | 1 nM | –
CC(C)(O)[C@H](F)CNC(=O)c1cnc(-c2ccc3cc(C#N)cnn23)cc1NC1CCC(C)(N2CCOCC2)CC1 (single isomer, unassigned) [Example 691] | – | – | – | 5 nM | 345 nM
CC1(C)CC1CNC(=O)c1cnc(-c2ccc3cc(C#N)cnn23)cc1NC12CCC(O)(CC1)CC2 (centres unmarked) [Example 924, 6-(3-cyanopyrrolo[1,2-b]pyridazin-7-yl)-N-((2,2-dimethylcyclopropyl)methyl)-4-((4-hydroxy-bicyclo[2.2.2]octan-1-yl)amino)nicotinamide] | – | 1 nM | 119 nM | – | –
COC(=O)NC12CC(Nc3cc(-c4ccc5cc(C#N)cnn45)ncc3C(=O)NCC#N)(C1)C2 [Example 487, methyl (3-((5-((cyanomethyl)carbamoyl)-2-(3-cyanopyrrolo[1,2-b]pyridazin-7-yl)pyridin-4-yl)amino)bicyclo[1.1.1]pentan-1-yl)carbamate] | 51 nM | – | – | < 1 nM | –
Cc1cc(Nc2cc(-c3ccc4cc(C#N)cnn34)ncc2C(=O)NC[C@@H](F)C(C)(C)O)ncc1C#N [Example 585, (R)-4-((5-cyano-4-methyl-pyridin-2-yl)amino)-6-(3-cyanopyrrolo[1,2-b]pyridazin-7-yl)-N-(2-fluoro-3-hydroxy-3-methyl-butyl)nicotinamide] | 104 nM | – | – | 2 nM | –
N#Cc1cnn2c(-c3cc(NC45CCC(O)(CC4)CC5)c(C(=O)NCC(F)(F)C(=O)N4CC(F)(F)C4)cn3)ccc2c1 [Example 961, 6-(3-cyanopyrrolo[1,2-b]pyridazin-7-yl)-N-(3-(3,3-difluoroazetidin-1-yl)-2,2-difluoro-3-oxopropyl)-4-((4-hydroxybicyclo[2.2.2]octan-1-yl)amino)nicotinamide] | – | 2 nM | 382 nM | – | –
